In publication PMC8764613, “Engineering of CYP153A33 With Enhanced Ratio of Hydroxylation to Overoxidation Activity in Whole-Cell Biotransformation of Medium-Chain 1-Alkanols” (Frontiers in Bioengineering and Biotechnology, 2022):

Molecular target: T1, CYP153A33 (Marinobacter nauticus, UniProt A1TY82)
T1 construct: gene Maqu_0600; co-expressed with P. putida CamA/CamB and E. coli FadL in E. coli BW25113(DE3) delta-fadD; with Putidaredoxin (Pseudomonas putida); Putidaredoxin reductase CamA (Pseudomonas putida)
T1 sequence (A1TY82 1-470): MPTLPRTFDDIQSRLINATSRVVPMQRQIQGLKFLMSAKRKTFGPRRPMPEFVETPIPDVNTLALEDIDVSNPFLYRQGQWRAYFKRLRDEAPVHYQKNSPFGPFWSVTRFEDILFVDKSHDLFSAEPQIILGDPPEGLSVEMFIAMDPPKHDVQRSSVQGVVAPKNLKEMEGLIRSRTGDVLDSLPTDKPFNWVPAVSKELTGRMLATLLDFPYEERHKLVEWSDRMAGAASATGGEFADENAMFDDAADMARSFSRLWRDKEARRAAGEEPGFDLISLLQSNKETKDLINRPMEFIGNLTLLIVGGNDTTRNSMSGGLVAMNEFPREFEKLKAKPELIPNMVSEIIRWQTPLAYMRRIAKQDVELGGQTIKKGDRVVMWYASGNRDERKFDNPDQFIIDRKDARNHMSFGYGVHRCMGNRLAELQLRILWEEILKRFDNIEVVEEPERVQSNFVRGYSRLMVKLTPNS
Assay: whole-cell biotransformation, GC analysis of products
Assay type: cell-based
Details: 10 mM substrate, pH 7.0, 30 °C, resting E. coli cells OD600 30 with 1% glucose, CamA/CamB and FadL co-expressed; product alpha,omega-dodecanediol

## CCCCCCCCCCCCO [A, 1-dodecanol]
  whole-cell biotransformation, GC analysis of products: CYP153A33-encoding gene was co-expressed with CamAB redox proteins for the whole-cell biotransformation of 1-dodecanol
